Source: US11578087B2, “Oxaborole esters and uses thereof” (priority 2016, dated 2023)

Columns and labels:
[1] = tested on: IL3000 T. congolense (drug sensitive) strain; assay: In vitro Alamar Blue 72 h drug sensitivity assay for T. congolense; format: cell-based, Trypanosoma congolense; settings: Trypanosoma congolense, 72 h, bloodstream form, 69 h + 3 h Resazurin, 34° C., read-out: IC50: I Org. Growth T. congolense 3 d
Summary of the method: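 IC50 values derive from 11-point curves averaged over at least three independent runs, with fluorescence read at 536 nm excitation and 588 nm emission. Resazurin was added for a final 3 h after 69 h compound exposure of bloodstream forms (HMI medium, 20% bovine serum, 34° C, 5% CO2).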

[2] = tested on: T. cruzi amastigote (Td Tomato-modified) in Vero cells; assay: In vitro IC50 measurement of T. cruzi amastigote killing using Td Tomato-modified T. cruzi; format: cell-based; settings: Trypanosoma cruzi, 72 h, fluorescence, read-out: IC50: I Org. amastigote Growth T. cruzi 3 d
Summary of the method: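 IC50/IC90 came from nonlinear regression of Day 3 minus Day 0 fluorescence (544/612 nm), correcting for input parasites. Final compound concentrations spanned 5 nM–5 uM on Td Tomato T. cruzi-infected Vero cells, 72 h at 37 °C.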

SMILES: Cc1c(C(=O)N[C@H](C(=O)OC2CCNCC2)C(C)C)ccc2c1B(O)OC2 [Example 6-146, Piperidin-4-yl (1-hydroxy-7-methyl-1,3-dihydrobenzo[c][1,2]oxaborole-6-carbonyl)-L-valinate]
- IC50 [1]: 10 to 5000 nM
- IC50 [2]: ≥ 1000 nM

SMILES: Cc1c(C(=O)N[C@H](C(=O)OC[C@@H](O)CO)C(C)C)ccc2c1B(O)OC2 [Example 6-148, (S)-2,3-dihydroxypropyl (1-hydroxy-7-methyl-1,3-dihydrobenzo[c][1,2]oxaborole-6-carbonyl)-L-valinate]
- IC50 [1]: 10 to 5000 nM
- IC50 [2]: ≥ 1000 nM

SMILES: Cc1c(C(=O)N[C@H](C(=O)OCC(CO)CO)C(C)C)ccc2c1B(O)OC2 [Example 6-149, 3-hydroxy-2-(hydroxymethyl)propyl (1-hydroxy-7-methyl-1,3-dihydrobenzo[c][1,2]oxaborole-6-carbonyl)-L-valinate]
- IC50 [1]: 10 to 5000 nM
- IC50 [2]: ≥ 1000 nM

SMILES: Cc1c(C(=O)N[C@H](C(=O)OCC2COC2)C(C)C)ccc2c1B(O)OC2 [Example 6-150, Oxetan-3-ylmethyl (1-hydroxy-7-methyl-1,3-dihydrobenzo[c][1,2]oxaborole-6-carbonyl)-L-valinate]
- IC50 [1]: 0.51 to 9.99 nM
- IC50 [2]: 21 to 999 nM

SMILES: Cc1c(C(=O)N[C@H](C(=O)OCC(F)(F)F)C(C)C)ccc2c1B(O)OC2 [Example 6-151, 2,2,2-Trifluoroethyl (1-hydroxy-7-methyl-1,3-dihydrobenzo[c][1,2]oxaborole-6-carbonyl)-L-valinate]
- IC50 [1]: < 0.5 nM
- IC50 [2]: ≤ 20 nM

SMILES: COCC1(COC(=O)[C@@H](NC(=O)c2ccc3c(c2C)B(O)OC3)C(C)C)CCOCC1 [Example 6-152, (4-(Methoxymethyl)tetrahydro-2H-pyran-4-yl)methyl (1-hydroxy-7-methyl-1,3-dihydrobenzo[c][1,2]oxaborole-6-carbonyl)-L-valinate]
- IC50 [1]: < 0.5 nM
- IC50 [2]: 21 to 999 nM

SMILES: Cc1c(C(=O)N[C@H](C(=O)OCC(F)(F)C(F)(F)F)C(C)C)ccc2c1B(O)OC2 [Example 6-153, 2,2,3,3,3-Pentafluoropropyl (1-hydroxy-7-methyl-1,3-dihydrobenzo[c][1,2]oxaborole-6-carbonyl)-L-valinate]
- IC50 [1]: < 0.5 nM
- IC50 [2]: ≤ 20 nM

SMILES: Cc1c(C(=O)N[C@H](C(=O)OCC2CCC(F)(F)CC2)C(C)C)ccc2c1B(O)OC2 [Example 6-154, (4,4-Difluorocyclohexyl)methyl (1-hydroxy-7-methyl-1,3-dihydrobenzo[c][1,2]oxaborole-6-carbonyl)-L-valinate]
- IC50 [1]: < 0.5 nM
- IC50 [2]: ≤ 20 nM

SMILES: Cc1c(C(=O)N[C@H](C(=O)OC2CCC(F)(F)CC2)C(C)C)ccc2c1B(O)OC2 [Example 6-155, 4,4-Difluorocyclohexyl (1-hydroxy-7-methyl-1,3-dihydrobenzo[c][1,2]oxaborole-6-carbonyl)-L-valinate]
- IC50 [1]: < 0.5 nM
- IC50 [2]: ≤ 20 nM

SMILES: Cc1c(C(=O)N[C@H](C(=O)OC(C(F)(F)F)C(F)(F)F)C(C)C)ccc2c1B(O)OC2 [Example 6-156, 1,1,1,3,3,3-Hexafluoropropan-2-yl (1-hydroxy-7-methyl-1,3-dihydrobenzo[c][1,2]oxaborole-6-carbonyl)-L-valinate]
- IC50 [1]: 10 to 5000 nM
- IC50 [2]: ≥ 1000 nM

SMILES: Cc1c(C(=O)N[C@H](C(=O)OCC2COCCOC2)C(C)C)ccc2c1B(O)OC2 [Example 6-157, (1,4-Dioxepan-6-yl)methyl (1-hydroxy-7-methyl-1,3-dihydrobenzo[c][1,2]oxaborole-6-carbonyl)-L-valinate]
- IC50 [1]: < 0.5 nM
- IC50 [2]: 21 to 999 nM

SMILES: Cc1c(C(=O)N[C@H](C(=O)OCc2ccnc(C(F)(F)F)n2)C(C)C)ccc2c1B(O)OC2 [Example 6-160, (2-(Trifluoromethyl)pyrimidin-4-yl)methyl (1-hydroxy-7-methyl-1,3-dihydrobenzo[c][1,2]oxaborole-6-carbonyl)-L-valinate]
- IC50 [1]: < 0.5 nM
- IC50 [2]: 21 to 999 nM

SMILES: Cc1c(C(=O)N[C@H](C(=O)OCc2cc(C(F)(F)F)ncn2)C(C)C)ccc2c1B(O)OC2 [Example 6-161, (6-(trifluoromethyl)pyrimidin-4-yl)methyl (1-hydroxy-7-methyl-1,3-dihydrobenzo[c][1,2]oxaborole-6-carbonyl)-L-valinate]
- IC50 [1]: < 0.5 nM
- IC50 [2]: ≤ 20 nM

SMILES: C[C@H](NC(=O)c1ccc2c(c1)B(O)OC2)C(=O)O [Example 6-164, (1-Hydroxy-1,3-dihydrobenzo[c][1,2]oxaborole-6-carbonyl)-L-alanine]
- IC50 [1]: 10 to 5000 nM
- IC50 [2]: ≥ 1000 nM

SMILES: Cc1c(C(=O)N[C@H](C(=O)OCc2ccc(F)cc2)C(C)C)ccc2c1B(O)OC2 [Example 6-165, 4-Fluorobenzyl (1-hydroxy-7-methyl-1,3-dihydrobenzo[c][1,2]oxaborole-6-carbonyl)-L-valinate]
- IC50 [1]: < 0.5 nM
- IC50 [2]: ≤ 20 nM

SMILES: Cc1c(C(=O)N[C@H](C(=O)OCc2ccc(F)c(F)c2)C(C)C)ccc2c1B(O)OC2 [Example 6-166, 3,4-Difluorobenzyl (1-hydroxy-7-methyl-1,3-dihydrobenzo[c][1,2]oxaborole-6-carbonyl)-L-valinate]
- IC50 [1]: < 0.5 nM
- IC50 [2]: ≤ 20 nM

SMILES: Cc1c(C(=O)N[C@H](C(=O)OCc2ccc(Cl)c(OCCN3CCOCC3)c2)C(C)C)ccc2c1B(O)OC2 [Example 6-167, 4-Chloro-3-(2-morpholinoethoxy)benzyl (1-hydroxy-7-methyl-1,3-dihydrobenzo[c][1,2]oxaborole-6-carbonyl)-L-valinate]
- IC50 [1]: < 0.5 nM
- IC50 [2]: ≤ 20 nM

SMILES: Cc1c(C(=O)N[C@H](C(=O)OCc2ccc(C(F)(F)F)nc2)C(C)C)ccc2c1B(O)OC2 [Example 6-168, (6-(Trifluoromethyl)pyridin-3-yl)methyl (1-hydroxy-7-methyl-1,3-dihydrobenzo[c][1,2]oxaborole-6-carbonyl)-L-valinate]
- IC50 [1]: < 0.5 nM
- IC50 [2]: ≤ 20 nM

SMILES: Cc1c(C(=O)N[C@H](C(=O)OCc2ccc(F)cc2)C(C)(C)O)ccc2c1B(O)OC2 [Example 6-169, 4-Fluorobenzyl (S)-3-hydroxy-2-(1-hydroxy-7-methyl-1,3-dihydrobenzo[c][1,2]oxaborole-6-carboxamido)-3-methylbutanoate]
- IC50 [1]: < 0.5 nM
- IC50 [2]: ≤ 20 nM

SMILES: Cc1c(C(=O)N[C@H](C(=O)OCCN2CCOCC2)C(C)C)ccc2c1B(O)OC2 [Example 6-170, 2-Morpholinoethyl (1-hydroxy-7-methyl-1,3-dihydrobenzo[c][1,2]oxaborole-6-carbonyl)-L-valinate]
- IC50 [1]: 0.51 to 9.99 nM
- IC50 [2]: 21 to 999 nM

SMILES: Cc1c(C(=O)N[C@H](C(=O)OCc2ccc(C(F)(F)F)cn2)C(C)C)ccc2c1B(O)OC2 [Example 6-171, (5-(trifluoromethyl)pyridin-2-yl)methyl (1-hydroxy-7-methyl-1,3-dihydrobenzo[c][1,2]oxaborole-6-carbonyl)-L-valinate]
- IC50 [1]: < 0.5 nM
- IC50 [2]: ≤ 20 nM

SMILES: Cc1c(C(=O)N[C@H](C(=O)OCC2CCOCC2)C(C)C)ccc2c1B(O)OC2 [Example 6-172, (tetrahydro-2H-pyran-4-yl)methyl (1-hydroxy-7-methyl-1,3-dihydrobenzo[c][1,2]oxaborole-6-carbonyl)-L-valinate]
- IC50 [1]: < 0.5 nM
- IC50 [2]: ≤ 20 nM

SMILES: Cc1c(C(=O)N[C@H](C(=O)OCCc2ccccn2)C(C)C)ccc2c1B(O)OC2 [Example 6-173, 2-(Pyridin-2-yl)ethyl (1-hydroxy-7-methyl-1,3-dihydrobenzo[c][1,2]oxaborole-6-carbonyl)-L-valinate]
- IC50 [1]: < 0.5 nM
- IC50 [2]: ≤ 20 nM

SMILES: Cc1c(C(=O)N[C@H](C(=O)OCc2cnccn2)C(C)C)ccc2c1B(O)OC2 [Example 6-186, Pyrazin-2-ylmethyl (1-hydroxy-7-methyl-1,3-dihydrobenzo[c][1,2]oxaborole-6-carbonyl)-L-valinate]
- IC50 [1]: 0.51 to 9.99 nM
- IC50 [2]: 21 to 999 nM

SMILES: Cc1c(C(=O)N[C@H](C(=O)OC(C)(C)C)C(C)C)ccc2c1B(O)OC2 [Example 6-188, Tert-butyl (1-hydroxy-7-methyl-1,3-dihydrobenzo[c][1,2]oxaborole-6-carbonyl)-L-valinate]
- IC50 [1]: 10 to 5000 nM
- IC50 [2]: ≥ 1000 nM

SMILES: Cc1c(C(=O)N[C@H](C(=O)OCc2cccc(C#N)n2)C(C)C)ccc2c1B(O)OC2 [Example 6-189, (6-cyanopyridin-2-yl)methyl (1-hydroxy-7-methyl-1,3-dihydrobenzo [c][1,2]oxaborole-6-carbonyl)-L-valinate]
- IC50 [1]: < 0.5 nM
- IC50 [2]: ≤ 20 nM

SMILES: Cc1c(C(=O)N[C@H](C(=O)OCc2ccncc2)C(C)C)ccc2c1B(O)OC2 [Example 6-190, Pyridin-4-ylmethyl (1-hydroxy-7-methyl-1,3-dihydrobenzo[c][1,2]oxaborole-6-carbonyl)-L-valinate]
- IC50 [1]: 0.51 to 9.99 nM
- IC50 [2]: 21 to 999 nM

SMILES: CCOc1c(C(=O)N[C@H](C(=O)OCc2ccccc2)C(C)C)ccc2c1B(O)OC2 [Example 6-192, Benzyl (7-ethoxy-1-hydroxy-1,3-dihydrobenzo[c][1,2]oxaborole-6-carbonyl)-L-valinate]
- IC50 [1]: 0.51 to 9.99 nM
- IC50 [2]: ≥ 1000 nM

SMILES: Cc1c(C(=O)N[C@H](C(=O)OCc2cncc(N3CCOCC3)n2)C(C)C)ccc2c1B(O)OC2 [Example 6-193, (6-morpholinopyrazin-2-yl)methyl (1-hydroxy-7-methyl-1,3-dihydrobenzo[c][1,2]oxaborole-6-carbonyl)-L-valinate]
- IC50 [1]: < 0.5 nM
- IC50 [2]: ≤ 20 nM

SMILES: CCOc1c(C(=O)N[C@H](C(=O)OCc2ccc(F)cc2)C(C)C)ccc2c1B(O)OC2 [Example 6-196, 4-Fluorobenzyl (7-ethoxy-1-hydroxy-1,3-dihydrobenzo[c][1,2]oxaborole-6-carbonyl)-L-valinate]
- IC50 [1]: 0.51 to 9.99 nM
- IC50 [2]: ≥ 1000 nM
